Reference: patent US11338040B2, “Immunomodulatory compounds” (Leidos, Inc., priority 2020, dated 2022)
Entries after “also recorded” stand apart in the source; their conditions may differ. Non-standard residues stand in square brackets, D forms with d. Residues, ends and D or L forms follow the SMILES beside them. Primed or numbered codes have the meaning given here. No end group written: not given here. PEG4′ = PEG linker of 4 PEG units; PEG4 = NCCOCCOCCOCCOCCC(=O)O

Legend:
[1] = biological target: T1, interaction between LAG3 and MHC-II (Homo sapiens, UniProt P18627); assay: HTRF (TR-FRET) LAG3/MHC-II binding assay; details: for response in dilution curve (HTRF signal): 10-fold dilutions starting at 100 μM or 10 μM, FIGS. 2A-9B; for IC50: LAG3:MHCII TR-FRET full dilution curves; for effect on HTRF signal: tested at 100 μM, 10 μM, and 1 μM, FIG. 1
T1 construct: purchased Cisbio US Inc
T1 sequence (P18627 23-450 limits assumed): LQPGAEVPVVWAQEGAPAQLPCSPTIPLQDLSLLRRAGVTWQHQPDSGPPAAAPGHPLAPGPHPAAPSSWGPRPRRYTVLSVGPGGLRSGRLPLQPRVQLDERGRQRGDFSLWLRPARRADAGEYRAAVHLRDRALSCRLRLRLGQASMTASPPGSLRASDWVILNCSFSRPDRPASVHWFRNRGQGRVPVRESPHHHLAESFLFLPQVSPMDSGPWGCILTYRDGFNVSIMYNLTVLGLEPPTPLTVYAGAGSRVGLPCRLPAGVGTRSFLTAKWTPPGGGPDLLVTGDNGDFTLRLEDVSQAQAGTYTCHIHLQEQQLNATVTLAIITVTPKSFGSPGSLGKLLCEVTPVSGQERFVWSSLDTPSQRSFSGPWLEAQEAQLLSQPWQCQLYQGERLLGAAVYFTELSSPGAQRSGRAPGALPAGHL
Excerpt: A Homogeneous Time-resolved Fluorescence (HTRF) LAG3/MHC-II binding assay (Cisbio US Inc.) was used to measure the interaction between MHC-II and LAG3 in the presence of various peptides and peptide conjugates. In this assay, the interaction between Tag1-LAG3 and Tag2-MHC-II is detected by using anti-Tag1-Terbium (HTRF donor) and anti-Tag2-XL665 (HTRF acceptor). When the donor and acceptor antibodies are brought into close proximity due to LAG3 and MHC-II binding, excitation of the donor antibody triggers fluorescent resonance energy transfer (FRET) towards the acceptor antibody, which in turn emits specifically at 665 nm. This specific signal is directly proportional to the extent of LAG3/MHC-II interaction. Thus, an agent that blocks the interaction between LAG3 and MHC-II will cause a reduction in HTRF ratio.
Each of peptide conjugates BT1, BT2, BT3, BT4, BT5, BT6, BT7, BT8, BT9, and peptides LG11 (LAG3-11), LAG3-56 (SEQ ID NO:5), and LAG3-42 (SEQ ID NO:6) was tested at 3 concentrations: 100 μM, 10 μM, and 1 μM. The dashed-lines represent the HTRF ratio readout of a control ovalbumin peptide (OVA, SEQ ID NO:7) (baseline) at the respective concentrations.
peptide conjugates and LG peptides were tested in full dilution curves in the LAG3:MHCII TR-FRET Assay described above to estimate IC50. peptide conjugates were tested starting at 100 μM or 10 μM. LG peptides were tested starting at 100 μM.

[2] = biological target: T2, PD1 (Homo sapiens, UniProt Q15116); assay: PD1/PDL1 cell reporter assay (PathHunter, Jurkat PD1/SHP1 EFC cells co-incubated with PDL1-presenting U2OS cells); format: cell-based; details: FIG. 10
T2 construct: expressed in transfected cells; host or cells: Jurkat cells (PD1-EFC and SHP1-EFC) co-cultured with PDL1-presenting U2OS cells
Procedure: Jurkat cells expressing PD1 and SHP1 proteins, each fused to a fragment of enzyme fragment complementation (EFC) system, were co-incubated with PDL1-presenting U2OS cells. […] Cells in co-culture were incubated at room temperature (RT) for 2 h (PD1 assay). The assay signal was generated using the PathHunter Bioassay Detection kit. Microplates were read following signal generation using a PerkinElmer ENVISION™ instrument for chemiluminescent signal detection. Inhibitory peptides or antibodies added to the culture result in reduction of light signal. The degree of inhibition was calculated using the following formula: Percent inhibition=100%×[1−(mean RLU of test sample−mean RLU of vehicle control)/mean RLU of EC80 control−mean RLU of vehicle control)].
Peptide conjugates BT1-BT11 were tested at three concentrations: 3.6 μM, 10.8 μM, 32.5 μM in triplicate wells. peptide conjugates were dissolved in DMSO and serially diluted in assay buffer. The highest concentration that can be tested in this assay was 32.5 μM peptide conjugate (1% DMSO).
Peptides LD12 (SEQ ID NO:9), LD10 (SEQ ID NO:1), and LD16 (SEQ ID NO:10) were tested at three concentrations: 11 μM, 33 μM, 100 μM in triplicate. LD peptides were dissolved in water and serially diluted in assay buffer. RLUs were measured at the end of the assay, and % Inhibition (% Efficiency) was calculated using the formula above.

[3] = peptide conjugates at 3.6 μM, 10.8 μM, 32.5 μM in triplicate
[4] = LD peptides at 11 μM, 33 μM, 100 μM in triplicate

T2 sequence (Q15116 25-288): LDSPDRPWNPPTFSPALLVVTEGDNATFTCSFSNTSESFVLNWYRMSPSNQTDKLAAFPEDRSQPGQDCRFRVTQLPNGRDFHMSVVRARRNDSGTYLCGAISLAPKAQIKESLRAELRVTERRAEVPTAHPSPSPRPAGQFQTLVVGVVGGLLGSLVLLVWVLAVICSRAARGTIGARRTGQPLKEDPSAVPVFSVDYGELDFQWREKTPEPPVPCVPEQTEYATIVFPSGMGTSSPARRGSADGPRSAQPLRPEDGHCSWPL

Molecule	response in dilution curve (HTRF signal) [1]	effect on HTRF signal [1]	inhibition of PD1 activity (percent inhibition of light signal) [2, 3]	other results
CC[C@H](C)[C@H](NC(=O)[C@H](CO)NC(=O)[C@@H](NC(=O)[C@H](CC(C)C)NC(=O)[C@H](CCCNC(=N)N)NC(=O)[C@@H](NC(=O)[C@H](CC(N)=O)NC(=O)[C@@H](NC(=O)[C@@H](NC(=O)[C@H](C)NC(=O)[C@@H]1CCCN1C(=O)[C@H](CC(C)C)NC(=O)[C@H](CO)NC(=O)[C@H](CCC(N)=O)NC(C)=O)[C@@H](C)O)[C@@H](C)CC)C(C)C)[C@@H](C)O)C(=O)N[C@@H](CCC(N)=O)C(=O)NCC(=O)N[C@H](C(=O)N[C@H](CO)C(=O)NCCOCCOCCOCCOCCC(=O)N[C@@H](Cc1c[nH]c2ccccc12)C(=O)N[C@@H](CCC(=O)O)C(=O)NCC(=O)N[C@H](C(=O)NCC(=O)N[C@@H](CCC(N)=O)C(=O)N[C@@H](Cc1c[nH]c2ccccc12)C(=O)N[C@@H](Cc1c[nH]c2ccccc12)C(=O)N[C@@H](CC(=O)O)C(=O)N[C@@H](CCC(=O)O)C(=O)N1CCC[C@H]1C(=O)N[C@@H](Cc1c[nH]c2ccccc12)C(=O)N[C@@H](Cc1c[nH]cn1)C(=O)N[C@@H](CC(C)C)C(=O)N1CCC[C@H]1C(=O)N[C@@H](CCC(=O)O)C(=O)N[C@@H](Cc1c[nH]c2ccccc12)C(=O)N1CCC[C@H]1C(=O)N[C@@H](C)C(=O)N[C@@H](CO)C(N)=O)[C@@H](C)O)[C@@H](C)O [BT6] (Ac-QSLPATINVRLTSIQGT[dS][PEG4]WEGTGQWWDEPWHLPEWPAS-NH2)	reduced the HTRF signal	reduced the HTRF signal	did not show inhibition at any of the tested concentrations	IC50 [1]: 146 nM
CC[C@H](C)[C@H](NC(=O)[C@H](CO)NC(=O)[C@@H](NC(=O)[C@H](CC(C)C)NC(=O)[C@H](CCCNC(=N)N)NC(=O)[C@@H](NC(=O)[C@H](CC(N)=O)NC(=O)[C@@H](NC(=O)[C@@H](NC(=O)[C@H](C)NC(=O)[C@@H]1CCCN1C(=O)[C@H](CC(C)C)NC(=O)[C@H](CO)NC(=O)[C@H](CCC(N)=O)NC(C)=O)[C@@H](C)O)[C@@H](C)CC)C(C)C)[C@@H](C)O)C(=O)N[C@@H](CCC(N)=O)C(=O)NCC(=O)N[C@H](C(=O)N[C@H](CO)C(=O)NCCOCCOCCOCCOCCC(=O)N[C@@H](CO)C(=O)N[C@@H](C)C(=O)N1CCC[C@H]1C(=O)N[C@@H](Cc1c[nH]c2ccccc12)C(=O)N[C@@H](CCC(=O)O)C(=O)N1CCC[C@H]1C(=O)N[C@@H](CC(C)C)C(=O)N[C@@H](Cc1c[nH]cn1)C(=O)N[C@@H](Cc1c[nH]c2ccccc12)C(=O)N1CCC[C@H]1C(=O)N[C@@H](CCC(=O)O)C(=O)N[C@@H](CC(=O)O)C(=O)N[C@@H](Cc1c[nH]c2ccccc12)C(=O)N[C@@H](Cc1c[nH]c2ccccc12)C(=O)N[C@@H](CCC(N)=O)C(=O)NCC(=O)N[C@H](C(=O)NCC(=O)N[C@@H](CCC(=O)O)C(=O)N[C@@H](Cc1c[nH]c2ccccc12)C(N)=O)[C@@H](C)O)[C@@H](C)O [BT7] (Ac-QSLPATINVRLTSIQGT[dS][PEG4]SAPWEPLHWPEDWWQGTGEW-NH2)	reduced the HTRF signal	reduced the HTRF signal	reduced the activity of PD1 at one or two of the tested concentrations	IC50 [1]: ~12.8 nM
Ac-QSLPATINVRLTSIQGT(dS)^2-PEG4-QSLPATINVRLTSIQGT(dS)^2-amide (peptide 1 Ac-QSLPATINVRLTSIQGT[dS][PEG4′]; peptide 2 QSLPATINVRLTSIQGT[dS]-NH2; also: chain 1 C-terminus joined to chain 2 N-terminus via PEG4) [BT11, peptide conjugate of two LD10 peptides (reverse, reverse) separated by a PEG4 linker]	activity at 100 μM		reduced the activity of PD1 at one or two of the tested concentrations	response in dilution curve (HTRF signal) ([1]; listed as B11): no or activity only at 100 μM
H2N-(dS)TGQISTLRVNITAPLSQ^1-PEG4-(dS)TGQISTLRVNITAPLSQ^1-amide (peptide 1 H-[dS]TGQISTLRVNITAPLSQ[PEG4′]; peptide 2 [dS]TGQISTLRVNITAPLSQ-NH2; also: chain 1 C-terminus joined to chain 2 N-terminus via PEG4) [BT9, peptide conjugate of two LD10 peptides (forward, forward) separated by a PEG4 linker]	no real effect; also recorded: no or activity only at 100 μM	behaved in this assay like a LAG3 agonist	reduced the activity of PD1 at one or two of the tested concentrations	
H2N-(dS)TGQISTLRVNITAPLSQ^1-PEG4-QSLPATINVRLTSIQGT(dS)^2-amide [BT10]	activity at 100 μM		reduced the activity of PD1 at one or two of the tested concentrations	response in dilution curve (HTRF signal) ([1]; listed as B10): no or activity only at 100 μM
H2N-(dS)TGQISTLRVNITAPLSQ^1-PEG4-WEGTGQWWDEPWHLPEWPAS^4-amide [BT8]	agonistic activity at 100 μM	two concentrations of BT8 reduced the HTRF signal	did not show inhibition at any of the tested concentrations	
H2N-WEGTGQWWDEPWHLPEWPAS^4-PEG4-(dS)TGQISTLRVNITAPLSQ^1-amide [BT3]	agonistic activity at 100 μM and 10 μM		did not show inhibition at any of the tested concentrations	
LD10da: peptide LD10da (SEQ ID NO:8) (STGQISTLRVNITAPLSQ; LD10da peptide) [reference compound]	no response			
LD12: negative control peptide LD12 (SEQ ID NO:9) (CRRTSTGQISTARVNITAPLSQ; LD12 peptide) [reference compound]				inhibition of PD1 activity (percent inhibition of light signal) [2, 4]: did not show inhibition
LD16: positive control peptide LD16 (SEQ ID NO:10) (TSTGQISTLRVNITAPLSQ; LD16 peptide) [reference compound]				inhibition of PD1 activity (percent inhibition of light signal) [2, 4]: Good dose-responses
LG42: peptide LG42 (LAG3-42; SEQ ID NO:6) (DWNFQQWDWKKHNHLDSHVV; LAG3-42 peptide) [reference compound]	no response			
STGQISTLRVNITAPLSQ (LD10 peptide, forward orientation) [positive control peptide]				inhibition of PD1 activity (percent inhibition of light signal) [2, 4]: Good dose-responses
